Experimental data from ChEMBL document CHEMBL1201862, “PubChem BioAssay data set” (2004).
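1) Cells in 96-well plates. 2) Compound, 48 h, 5 concentrations. 3) Linear interpolation between surrounding doses. 4) Unreached endpoint = highest concentration. Abbreviation: GI50, concentration required for 50% inhibition of growth.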 The source made the active and inactive calls. Rule as the data show it: active = GI50 up to about 1.1 µM and inactive = higher.

How the values were obtained:
Experiment in all cases: NCI tumour cell line growth inhibition, 48 h
ACHN = test system: ACHN
KM12 = test system: KM12
RPMI-8226 = test system: RPMI-8226
LOX IMVI = test system: LOX IMVI
SF-268 = test system: SF-268
CCRF-CEM = test system: CCRF-CEM
SNB-75 = test system: SNB-75
BT-549 = test system: BT-549
U-251 = test system: U-251
SF-295 = test system: SF-295
OVCAR-4 = test system: OVCAR-4
M14 = test system: M14
SK-MEL-5 = test system: SK-MEL-5
IGROV-1 = test system: IGROV-1
OVCAR-5 = test system: OVCAR-5
MCF7 = test system: MCF7
SF-539 = test system: SF-539
MOLT-4 = test system: MOLT-4
UACC-257 = test system: UACC-257
SK-MEL-28 = test system: SK-MEL-28

Measured: GI50

COC(=O)c1ccc(-n2c(C)nc(=O)c(-c3ccccc3)c2C)cc1
inactive: ACHN > 100 µM | KM12 > 100 µM | RPMI-8226 > 100 µM | LOX IMVI > 100 µM | SF-268 > 100 µM | CCRF-CEM > 100 µM | SNB-75 > 100 µM | BT-549 > 100 µM | U-251 > 100 µM | SF-295 > 100 µM | OVCAR-4 > 100 µM | M14 > 100 µM | SK-MEL-5 > 100 µM | IGROV-1 > 100 µM | OVCAR-5 > 100 µM | MCF7 > 100 µM | SF-539 74 µM | MOLT-4 > 100 µM | UACC-257 > 100 µM | SK-MEL-28 > 100 µM

CC[N+](CC)(CCNCC(N)=O)CC(N)=O
inactive: ACHN > 10 µM | KM12 > 10 µM | RPMI-8226 > 10 µM | LOX IMVI > 10 µM | SF-268 > 10 µM | CCRF-CEM > 10 µM | SNB-75 > 10 µM | BT-549 > 10 µM | U-251 > 10 µM | SF-295 > 10 µM | OVCAR-4 > 10 µM | M14 > 10 µM | SK-MEL-5 > 10 µM | IGROV-1 > 10 µM | OVCAR-5 > 10 µM | MCF7 > 10 µM | SF-539 > 10 µM | MOLT-4 > 10 µM | UACC-257 > 10 µM | SK-MEL-28 > 10 µM

COc1ccc(COCC[C@H](C)OC2OC(CO[Si](C)(C)C(C)(C)C)C(O)C(O)C2O)cc1 (stereo not given in full)
inactive: ACHN > 100 µM | KM12 > 100 µM | RPMI-8226 > 100 µM | LOX IMVI > 100 µM | SF-268 > 100 µM | CCRF-CEM > 100 µM | SNB-75 44.2 µM | BT-549 > 100 µM | U-251 > 100 µM | SF-295 > 100 µM | OVCAR-4 > 100 µM | M14 > 100 µM | SK-MEL-5 > 100 µM | IGROV-1 > 100 µM | OVCAR-5 > 100 µM | MCF7 > 100 µM | SF-539 > 100 µM | MOLT-4 56.9 µM | UACC-257 > 100 µM | SK-MEL-28 > 100 µM

COC(=O)c1cc2ccc(OC(C)=O)c(OC(C)=O)c2cn1
inactive: ACHN 17.1 µM | KM12 18.7 µM | RPMI-8226 2.16 µM | LOX IMVI 1.42 µM | SF-268 20.8 µM | CCRF-CEM 2.29 µM | SNB-75 20 µM | BT-549 > 10 µM | U-251 3.64 µM | SF-295 4.95 µM | OVCAR-4 16.7 µM | M14 19 µM | SK-MEL-5 16.1 µM | IGROV-1 18.6 µM | OVCAR-5 18.7 µM | MCF7 2.79 µM | SF-539 19.1 µM | MOLT-4 4.12 µM | UACC-257 14.4 µM | SK-MEL-28 19 µM

CCSc1nc(N2CCOCC2)c2cn[nH]c2n1
inactive: ACHN 31.7 µM | KM12 58.9 µM | RPMI-8226 37.5 µM | LOX IMVI 32.4 µM | SF-268 > 100 µM | CCRF-CEM 60.5 µM | SNB-75 71.1 µM | BT-549 82.2 µM | U-251 > 100 µM | SF-295 54.8 µM | OVCAR-4 62.5 µM | M14 > 100 µM | SK-MEL-5 50.6 µM | IGROV-1 9.64 µM | OVCAR-5 77.4 µM | MCF7 44.9 µM | SF-539 > 100 µM | MOLT-4 > 100 µM | UACC-257 > 100 µM | SK-MEL-28 88.5 µM

COC(=O)c1cc(C)ccc1/C=C1\Cc2cccc(C)c2C1=O
inactive: ACHN 38.7 µM | KM12 26.7 µM | RPMI-8226 28.8 µM | LOX IMVI 8.77 µM | SF-268 98.9 µM | CCRF-CEM 12.3 µM | SNB-75 35.1 µM | BT-549 17.6 µM | U-251 36.6 µM | SF-295 30.9 µM | OVCAR-4 68.5 µM | M14 > 100 µM | SK-MEL-5 7.06 µM | IGROV-1 76.9 µM | OVCAR-5 78.7 µM | MCF7 30.5 µM | SF-539 67.3 µM | MOLT-4 9.35 µM | UACC-257 22 µM | SK-MEL-28 62.1 µM
